Holding throughout (assay): NCI-60 cell line screen, 48 h
Assay [1] deals with DLD-1.
The test system of assay [2] is RXF 631.
The test system of assay [3] is KM-20L2.
Assay [4] has as its system LXFL 529.
Assay [5] deals with HOP-18.
In assay [6] the test system is XF498.
Assay [7] concerns M19-MEL.
In assay [8] the test system is SNB-78.
Assay [9] relates to BT-549.

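Tested at 5 concentrations; 48 h exposure; 96-well plates; endpoints linearly interpolated, else capped at highest concentration. The concentration for 50% growth inhibition is given as GI50.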 Calls of active or inactive are those of the source. Rule as the data show it: active = GI50 up to about 1.1 µM and inactive = higher.

As to `CN(C(=O)C12C3C4C5C3C1(C(=O)O)C5C42)C(C)(C)C` (stereo unspecified), the GI50 was 23.7 µM (inactive) in assay [1]; > 100 µM (inactive) in [2]; > 100 µM (inactive) in assay [3]; 74.8 µM (inactive) in [4]; > 100 µM (inactive) in assay [5]; > 100 µM (inactive) in assay [6]. The GI50 in [7] and in assay [8] was > 100 µM (inactive) throughout.

As to `CCOC(=O)[C@H]1Nc2ccc(O)cc2C2c3ccccc3CC21` (stereo partly specified), the GI50 in assay [1] was 70.8 µM (inactive); in [2], > 100 µM (inactive); in [3] it was > 100 µM (inactive); in assay [4] it was 42.6 µM (inactive); in assay [5], > 100 µM (inactive); in assay [7] it was 55.1 µM (inactive). The GI50 in [8] was > 100 µM (inactive).

As to `Cc1ccc(S(=O)(=O)NC2(C=O)CCC(C(C)(C)C)CC2)cc1` (stereo unspecified), the GI50 is 35.2 µM (inactive) in assay [1]; 31.8 µM (inactive) in [2]; 28.8 µM (inactive) in assay [3]; > 100 µM (inactive) in assay [4]; 29.2 µM (inactive) in assay [5]; 43.8 µM (inactive) in assay [6]. Besides, the GI50 in [7] is 24.7 µM (inactive); in [8] it was > 100 µM (inactive).

Turning to `Cc1cc2c(C(C)C)c(O)c(O)c(/C=N\CCO)c2c(O)c1-c1c(C)cc2c(C(C)C)c(O)c(O)c(/C=N/CCO)c2c1O`, the GI50 is 3.33 µM (inactive) in assay [1]; 2.33 µM (inactive) in [2]; 1.64 µM (inactive) in assay [4]; 1.91 µM (inactive) in assay [5]; 2.87 µM (inactive) in assay [6]; 1.86 µM (inactive) in [7]. For the same compound, in [8], the GI50 was 3.24 µM (inactive).

As for `COC(=O)CCC(=O)CC(=O)C(=O)Nc1c(Cl)cc([N+](=O)[O-])cc1Cl`, the GI50 was 65.6 µM (inactive) in assay [1]; > 100 µM (inactive) in assay [2]; > 100 µM (inactive) in assay [3]; > 100 µM (inactive) in [4]; > 100 µM (inactive) in assay [5]; > 100 µM (inactive) in assay [6]. In addition, the GI50 in assay [7] and in assay [8] was > 100 µM (inactive) in each case.

In the case of `Cn1c2ccccc2c(=O)c2c(O)cc3c(c21)CC(C1(C)CO1)O3` (stereo unspecified), the GI50 in assay [1] was 3.64 µM (inactive); in assay [2], 3.61 µM (inactive); in [9], 1.67 µM (inactive); in assay [3], 4.66 µM (inactive); in assay [4] it was 0.229 µM (active); in [5] it was 32.3 µM (inactive). Further, in assay [6], the GI50 was 1.88 µM (inactive).

In the case of `CCOc1ccc(NC(=O)CC2C(=O)Nc3ccccc3[S+]2[O-])cc1` (stereo unspecified), the GI50 in [1] was > 100 µM (inactive); in assay [2] it was > 84.9 µM (inactive); in assay [3] it was > 46.5 µM (inactive); in assay [4], > 80 µM (inactive); in assay [5] it was > 100 µM (inactive); in assay [6] it was 38.8 µM (inactive). The GI50 in assay [7] and in assay [8] was > 100 µM (inactive) in each case.

On to `COc1c(OC2OC(CO)C(O)C(O)C2O)cc2c(c1OC)-c1ccc(OC)c(=O)cc1[C@@H](NC(C)=O)CC2` (stereo partly specified), for which the GI50 was > 100 µM (inactive) in [1]; > 100 µM (inactive) in assay [2]; > 100 µM (inactive) in assay [3]; 54.1 µM (inactive) in assay [4]; > 100 µM (inactive) in [5]; 29.3 µM (inactive) in assay [6]. In addition, the figures for the GI50 in [7] and in [8] were 60.1 µM (inactive) and 61 µM (inactive), respectively.

Regarding `N#CC1=C(c2ccccc2)OC2(N)OC(c3ccccc3)=C(C#N)C12C#N` (stereo unspecified), the GI50 in assay [1] was > 100 µM (inactive); in assay [2], > 100 µM (inactive); in assay [3] it was > 100 µM (inactive); in [4] it was 74 µM (inactive); in [5], 21.6 µM (inactive); in assay [6], > 100 µM (inactive). For the same compound, the GI50 in assay [7] and in [8] was > 100 µM (inactive) in each case.

Regarding `NC1=NCC(c2ccccn2)C1c1ccc(F)cc1` (stereo unspecified), the GI50 in [1], in [2], in assay [3], in assay [4], in assay [5] and in assay [6] was > 100 µM (inactive) in each case. In addition, the GI50 in [7] and in [8] was > 100 µM (inactive) throughout.

Regarding `CC[C@@]1(O)C(=O)OCc2c1c(Cl)c1n(c2=O)Cc2cc3ccccc3nc2-1`, the GI50 in [1] was 6.68 µM (inactive); in [2], 2.48 µM (inactive); in assay [9] it was 8.67 µM (inactive); in assay [3], 4.47 µM (inactive); in assay [4], 8.15 µM (inactive); in assay [5], 3.21 µM (inactive). In addition, the GI50 in [6] was 3.07 µM (inactive); in assay [7], 1.67 µM (inactive); in assay [8] it was 7.18 µM (inactive).

These data come from ChEMBL document CHEMBL1201862, “PubChem BioAssay data set” (2004).
